Columns and labels:
[1] = test system: Alternaria alternata, Aspergillus niger, Aureobasidium pullulans, Cladosporium cladosporioides, Cephalosporium sp. (DR 423); assay: Wood panel test method; set-up: species or system mixed spore suspension of mold; details: compositions with the single moldicide at 40 mg/kg
Experimental: The wood panel specimens were approximately 5×3 inches (12.7×7.6 cm)×board thickness. There were seven replicates per treatment. The wood panels were conditioned at approximately 80° F. (27° C.) and 80% relative humidity for one week prior to mold inoculation. The wood panels were supported on a screen above a layer of water in a sealed plastic box for 8 weeks at approximately 80° F. (27° C.) and 100% relative humidity.
Mold and stain fungi used for inoculum were Alternaria alternata, Aspergillus niger, Aureobasidium pullulans, Cladosporium cladosporioides, and an additional mold isolated from ACQ-treated wood from Georgia Pacific (October 2002, tentatively identified as Cephalosporium sp. (DR 423).
Each inoculum was produced from fully colonized, 2% malt agar in 100 mm petri plates, by washing spores with 10 mL distilled water plus 10 mL rinse (20 mL inoculum were produced per plate). The panels were inoculated by spraying with mixed spore suspension of mold on the surface to be evaluated; approx. 2-3 mL of inoculum were applied per panel. The panel surfaces were lightly misted with distilled water once per week during the evaluation test to maintain optimum conditions for mold colonization in the chambers. Two evaluation ratings were made weekly for 8 weeks; using a scale of 0 (no coverage by mold) to 10 (total coverage by mold). […]

Aspergillus niger = assay: Six-well plate screening test; assay type: cell-based; details: for Minimum Inhibitory Concentrations (MIC): 10 days of incubation at room temperature
Trichoderma virens = assay: Six-well plate screening test; assay type: cell-based; details: for Minimum Inhibitory Concentrations (MIC): 10 days of incubation at room temperature
[2] = test system: Cladosporium cladosporioides; assay: Six-well plate screening test; assay type: cell-based; details: for Minimum Inhibitory Concentrations (MIC): 10 days of incubation at room temperature
Penicillium funiculosum = assay: Six-well plate screening test; assay type: cell-based; details: for Minimum Inhibitory Concentrations (MIC): 10 days of incubation at room temperature
Alternaria alternata = assay: Six-well plate screening test; assay type: cell-based; details: for Minimum Inhibitory Concentrations (MIC): 10 days of incubation at room temperature
Mold from ACQ wood = assay: Six-well plate screening test; assay type: cell-based, cephalosporium; details: 10 days of incubation at room temperature
Stachybotrus charatrum = assay: Six-well plate screening test; assay type: cell-based; details: for Minimum Inhibitory Concentrations (MIC): 10 days of incubation at room temperature
Aureobasidium pullulans = assay: Six-well plate screening test; assay type: cell-based; details: for Minimum Inhibitory Concentrations (MIC): 10 days of incubation at room temperature
[3] = single moldicide or ACQ-C alone, incubation period 14 days
[4] = single moldicide, incubation period 21 days

Compound	potential to control mold growth [1]	Minimum Inhibitory Concentrations (MIC) (Aspergillus niger)	MIC (Aspergillus niger; [3])	MIC (Aspergillus niger; [4])	Minimum Inhibitory Concentrations (MIC) (Trichoderma virens)	MIC (Trichoderma virens; [3])	MIC (Trichoderma virens; [4])	Minimum Inhibitory Concentrations (MIC) [2]	MIC [2, 3]	MIC [2, 4]	Minimum Inhibitory Concentrations (MIC) (Penicillium funiculosum)	MIC (Penicillium funiculosum; [3])	MIC (Penicillium funiculosum; [4])	Minimum Inhibitory Concentrations (MIC) (Alternaria alternata)	MIC (Alternaria alternata; [3])	MIC (Alternaria alternata; [4])	Minimum Inhibitory Concentrations (MIC) (Mold from ACQ wood)	Minimum Inhibitory Concentrations (MIC) (Aureobasidium pullulans)	MIC (Aureobasidium pullulans; [3])	Minimum Inhibitory Concentrations (MIC) (Stachybotrus charatrum)	other results
CCCC1COC(Cn2cncn2)(c2ccc(Cl)cc2Cl)O1 (stereo not drawn) [Propiconazole, cis-trans-1-[2-(2,4-dichlorophenyl)-4-propyl-1,3-dioxolan-2-ylmethyl]-1H-1,2,4-triazole]	good potential to control mold growth	10 mg/kg	25 mg/kg	25 mg/kg	10 mg/kg	6.2 mg/kg	12.5 mg/kg	1 mg/kg	3.1 mg/kg	3.1 mg/kg	100 mg/kg	>100 mg/kg	>100 mg/kg	>100 mg/kg	100 mg/kg	100 mg/kg	10 mg/kg	1 mg/kg	0.8 mg/kg		MIC (Stachybotrus charatrum; [3]): 25 mg/kg; MIC (Stachybotrus charatrum; [4]): 25 mg/kg; MIC (Aureobasidium pullulans; [4]): 0.8 mg/kg
CC(C)(C)C(=O)C(Oc1ccc(Cl)cc1)n1cncn1 (racemic) [Tridimefon, (RS)-1-(4-chlorophenoxy)-3,3-dimethyl-1-(1H-1,2,4-triazol-1-yl)butan-2-one]		>100 mg/kg			>100 mg/kg			>100 mg/kg			>100 mg/kg			>100 mg/kg				>100 mg/kg		>100 mg/kg	
Cc1cc(C2CC2)nc(Nc2ccccc2)n1 [Cyprodinil, 4-cyclopropyl-6-methyl-N-phenylpyrimidin-2-amine]		10 mg/kg	100 mg/kg	>100 mg/kg	>100 mg/kg	100 mg/kg	>100 mg/kg	100 mg/kg	100 mg/kg	>100 mg/kg	100 mg/kg	100 mg/kg	100 mg/kg	10 mg/kg	12.5 mg/kg	50 mg/kg	>100 mg/kg	100 mg/kg	100 mg/kg		MIC (Stachybotrus charatrum; [3]): 100 mg/kg; MIC (Stachybotrus charatrum; [4]): 100 mg/kg; MIC (Aureobasidium pullulans; [4]): >100 mg/kg
CC1=C(C(=O)Nc2ccccc2)SCCO1 [Carboxin, 5,6-dihydro-2-methyl-1,4-oxathiine-3-carboxanilide]		>100 mg/kg						100 mg/kg			>100 mg/kg			>100 mg/kg			>100 mg/kg	100 mg/kg		100 mg/kg	
CCNC(=O)NC(=O)C(C#N)=NOC [Cymoxinil, 1-(2-cyano-2-methoxyiminoacetyl)-3-ethylurea]		10 mg/kg	>100 mg/kg		>100 mg/kg	>100 mg/kg		>100 mg/kg	>100 mg/kg		>100 mg/kg	>100 mg/kg		>100 mg/kg	>100 mg/kg			>100 mg/kg	>100 mg/kg	>100 mg/kg	
CC(C)(C)C(O)(CCc1ccc(Cl)cc1)Cn1cncn1 (racemic) [Tebuconazole, (RS)-1-p-chlorophenyl4,4-dimethyl-3-(1H-1,2,4-triazol-1-ylmethyl)pentan-3-ol]	good potential to control mold growth	10 mg/kg	10 mg/kg		>10 mg/kg	>10 mg/kg		10 mg/kg	10 mg/kg		>10 mg/kg	>10 mg/kg		100 mg/kg	100 mg/kg		>100 mg/kg	10 mg/kg	10 mg/kg		

— patent US20050227956A1, “Control of mold growth on wood” (priority 2004, published 2005)
